Values quoted from earlier work, collected in US10663473B2, “Method of identifying a status of a mucosal intestinal epithelial barrier to improve treatment of inflammatory bowel disease” (Maximus Diagnostic Technologies LLC, priority 2016, dated 2020).

Tested on: IBD patients
Details: cited from earlier work

Q: For “golimumab: monoclonal antibody to TNF-alpha sold under the trademark Simponi”, which “short-term and long-term clinical response rate” value (all UC patients) is on record?
A: Its value is 50%.

Q: With “vedolizumab: monoclonal antibody that specifically binds to integrin α4β7, sold under the name ENTYVIO by Takeda Pharmaceuticals” as the substance, how does the clinical response rate (particularly for Crohn's disease, compared with anti-TNF agents) read?
A: The clinical response rate was “low”.
